Laboratory results: patent US20100048692A1, “Naphthofuranone Derivatives as Specific Inhibitors of Thymidylate Synthases” (priority 2006, published 2010)
Values after ≈ are worked out from the molar mass of the structure shown.

Assays:
Citrobacter 224 = assay: Sensitivity assay (MIC); assay type: cell-based
Experimental: (§1) The anti-bacterial properties of the compounds hereby described were evaluated towards: a) bacterial native strains comprehending gram-positive and gram-negative bacteria. The bacterial cultures were obtained by sowing bacteria in Mueller-Hinton (Difco) stirring at 37 C for 24 hours, and were then diluted, after reaching an appreciable level of exponential growth, using a growth plot in order to get a […] CFU/mL inoculum. Following, the obtained cultures were put in contact with growing concentrations of the present compound. Furthermore, it was measured the minimal concentration inhibiting the growth (MIC) of each of these compounds. In Table 2 several MIC obtained by different bacterial pathogenic strains have been reported that were treated using compounds of the present invention and were also compared with those obtained through ciprofluoxacin (cpx).

[1] = tested on: Enterococcus faecalis ATCCC 29212; assay: Sensitivity assay (MIC); assay type: cell-based
Experimental: as §1

Escherichia coli 256 = assay: Sensitivity assay (MIC); assay type: cell-based
Experimental: as §1

Escherichia coli 292 = assay: Sensitivity assay (MIC); assay type: cell-based
Experimental: as §1

Listeria monocytogenes 3 = assay: Sensitivity assay (MIC); assay type: cell-based
Experimental: as §1

Listeria monocytogenes 4 = assay: Sensitivity assay (MIC); assay type: cell-based
Experimental: as §1

Listeria monocytogenes 5 = assay: Sensitivity assay (MIC); assay type: cell-based
Experimental: as §1

Listeria monocytogenes 6 = assay: Sensitivity assay (MIC); assay type: cell-based
Experimental: as §1

Listeria monocytogenes 7 = assay: Sensitivity assay (MIC); assay type: cell-based
Experimental: as §1

Listeria monocytogenes 8 = assay: Sensitivity assay (MIC); assay type: cell-based
Experimental: as §1

[2] = tested on: Listeria monocytogenes ATCC 4428; assay: Sensitivity assay (MIC); assay type: cell-based
Experimental: as §1

[3] = tested on: Staphylococcus aureus 341; assay: Sensitivity assay (MIC); assay type: cell-based
Experimental: as §1

[4] = tested on: Staphylococcus aureus 343; assay: Sensitivity assay (MIC); assay type: cell-based
Experimental: as §1

[5] = tested on: Staphylococcus aureus ATCC29213; assay: Sensitivity assay (MIC); assay type: cell-based
Experimental: as §1

[6] = tested on: Staphylococcus aureus K28; assay: Sensitivity assay (MIC); assay type: cell-based
Experimental: as §1

[7] = tested on: Staphylococcus haemolyticus ATCC 2997; assay: Sensitivity assay (MIC); assay type: cell-based
Experimental: as §1

[8] = tested on: Staphylococcus saprophiticus ATCC15305; assay: Sensitivity assay (MIC); assay type: cell-based
Experimental: as §1

Streptococcus 42 = assay: Sensitivity assay (MIC); assay type: cell-based
Experimental: as §1

CnTS = CnTS (Cryptococcus neoformans, UniProt P0CS12); assay type: biochemical
Experimental: (§2) Enzymatic inhibition assay: The compounds hereby analyzed were previously dissolved in DMSO. The inhibitor concentrated solution was obtained by dissolving 2 mg of compound in 1 mL of DMSO. Next, solutions thus obtained were successively preserved and the […], and the stability of their working conditions was constantly controlled. The spectrophotometrical determinations of enzymatic reaction kinetics were carried out using a Parkin-Elmer λ16 spectrophotometer, provided with a multicell system which was maintained at the constant temperature of 20 C. degrees, with a HAAAKE F3C thermostatted bath.
(§3) The elaboration of the data was carried out using Kaleidagraph 3.0; this software was provided by Macintosh (Adelbeck, Software Reading, Pa., 1989, version 2.3). The measurement of Ki (inhibition constant) was obtained through enzymatic inhibition essays carried out under stationary conditions. […] The enzyme is added finally. The assay aiming at controlling TS enzymatic activity is repeated at regular intervals. […] In this case inhibition constants were obtained through a non-linear regression analysis, which utilized of the least squared method, of the enzymatic reaction initial speeds relating to the inhibitor concentration; equation was the following:
Vi=Vmax*(1−([I])/([I]+(Ki*(1+([s]/Km))))), where
Vi=enzymatic reaction initial velocity, Vmax=enzymatic reaction maximum velocity, I=inhibitor concentration, Ki=inhibition constant, S=substrate concentration, Km=Michaelis-Menten.
Using this equation it is possible to obtain Ki making use of a minimal amount of experimental data. The specificity index relating to each of the compounds (Bio. Med. Chem. ) refers to the relation between KihTS/Kiother enzyme.

hDHFR (human DHFR) = target: T1, hDHFR (human DHFR) (Homo sapiens, UniProt P00374); assay: Enzymatic inhibition assay (Ki), human DHFR; assay type: biochemical
T1 construct: made in house; host or cells: Escherichia coli chi2913
T1 sequence (P00374 1-187): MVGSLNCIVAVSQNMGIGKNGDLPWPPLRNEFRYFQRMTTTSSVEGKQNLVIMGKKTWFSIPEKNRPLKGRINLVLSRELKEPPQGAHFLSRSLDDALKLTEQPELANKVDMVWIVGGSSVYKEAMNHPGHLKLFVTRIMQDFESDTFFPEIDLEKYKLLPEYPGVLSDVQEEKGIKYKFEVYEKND
Experimental: The purified enzyme has been stored at −80° C. […] The enzymatic assays for the measurements of the Km consist in measuring the initial rate of the enzymatic reaction in presence of variable and increasing substrate (FAH2).
as §2
as §3, with “The” for “The elaboration of the data was carried out using Kaleidagraph 3.0; this software was provided by Macintosh (Adelbeck, Software Reading, Pa., 1989, version 2.3). The”, “following: […]” for “following:”

VERO cells = assay: Citotoxicity assay (MTT test on VERO cells); assay type: cell-based; details: for MTT test, percentage of cellular growth: VERO cells, 24-hour incubation
Experimental: Aiming at evaluating the citotoxicity level, the compounds included in the present invention were submitted to the MTT assay, by using VERO cells on MEM soil/ground which was previously added with […]), penicillin (1%) (50 U/ml), streptomycine (50 μg/ml) e L-glutamine (1%) according to the Ishioka method (1988). Afterwards the cultures have been observed for 2 days through microscope at indirect light, and the living cells have been quantified in a Burker camera using the Tripan blue exclusion assay.
Later several increasing concentrations of the analyzed compound were added thereto and, after a 24-hour incubation period, the mitochondrial dehydrogenase activity was measured in the living cells (MTT assay) (Mosmann, T. 1983), by using a sample of the hereof compound which had not been previously as a comparison.

[9] = tested on: S. epidermidis strains (multiresistant); assay: Sensitivity assay and growth curve, multiresistant S. epidermidis strains; assay type: cell-based, Staphylococcus epidermidis
Experimental: (§4) The bacterial cultures were obtained by sowing bacteria in Mueller-Hinton (Difco) stirring at 37 C for 24 hours, and were then diluted, after reaching an appreciable level of exponential growth, using a growth plot in order to get a […] CFU/mL inoculum.
(§5) Following, the obtained cultures were put in contact with growing concentrations of the present compound. Furthermore, it was measured the minimal concentration inhibiting the growth (MIC) of each of these compounds. In Table 2 several MIC obtained by different bacterial pathogenic strains have been reported that were treated using compounds of the present invention and were also compared with those obtained through ciprofluoxacin (cpx).

[10] = tested on: multiresistant strains (clinical isolates); assay: Sensitivity assay on 23 isolated multiresistant bacterial strains; assay type: cell-based; details: multiresistant strains taken into consideration
Experimental: as §4, §5

Chain of CnTS (P0CS12 whole entry): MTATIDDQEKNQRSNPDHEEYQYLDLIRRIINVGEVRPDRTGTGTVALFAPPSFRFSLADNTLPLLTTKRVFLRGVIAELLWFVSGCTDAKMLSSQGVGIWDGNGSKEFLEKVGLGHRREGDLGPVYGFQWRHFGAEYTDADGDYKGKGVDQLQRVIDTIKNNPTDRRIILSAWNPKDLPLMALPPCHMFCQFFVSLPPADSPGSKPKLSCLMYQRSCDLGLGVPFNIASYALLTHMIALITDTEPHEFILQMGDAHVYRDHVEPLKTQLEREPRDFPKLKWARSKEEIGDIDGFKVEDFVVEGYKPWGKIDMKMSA

| Structure (SMILES) | Minimum inhibitory concentration (MIC) (Citrobacter 224) | Minimum inhibitory concentration (MIC) [1] | Minimum inhibitory concentration (MIC) (Escherichia coli 256) | Minimum inhibitory concentration (MIC) (Escherichia coli 292) | Minimum inhibitory concentration (MIC) (Listeria monocytogenes 3) | Minimum inhibitory concentration (MIC) (Listeria monocytogenes 4) | Minimum inhibitory concentration (MIC) (Listeria monocytogenes 5) | Minimum inhibitory concentration (MIC) (Listeria monocytogenes 6) | Minimum inhibitory concentration (MIC) (Listeria monocytogenes 7) | Minimum inhibitory concentration (MIC) (Listeria monocytogenes 8) | Minimum inhibitory concentration (MIC) [2] | Minimum inhibitory concentration (MIC) [3] | Minimum inhibitory concentration (MIC) [4] | Minimum inhibitory concentration (MIC) [5] | Minimum inhibitory concentration (MIC) [6] | Minimum inhibitory concentration (MIC) [7] | Minimum inhibitory concentration (MIC) [8] | Ki (CnTS) | Ki (hDHFR (human DHFR)) | SSI hTS vs hDHFR (hDHFR (human DHFR)) | also measured |
| --- | --- | --- | --- | --- | --- | --- | --- | --- | --- | --- | --- | --- | --- | --- | --- | --- | --- | --- | --- | --- | --- |
| O=C(O)c1cn(C2CC2)c2cc(N3CCNCC3)c(F)cc2c1=O [cpx, ciprofluoxacin, reference compound] | >25 µg/mL | 12.5 µg/mL (≈ 37.7 µM) | >25 µg/mL | >25 µg/mL | 2.5 µg/mL (≈ 7.54 µM) | 1 µg/mL (≈ 3.02 µM) | 2.5 µg/mL (≈ 7.54 µM) | 2.5 µg/mL (≈ 7.54 µM) | 1 µg/mL (≈ 3.02 µM) | 1 µg/mL (≈ 3.02 µM) | 2.5 µg/mL (≈ 7.54 µM) | 1.2 µg/mL (≈ 3.62 µM) | 0.5 µg/mL (≈ 1.51 µM) | 0.5 µg/mL (≈ 1.51 µM) | 0.5 µg/mL (≈ 1.51 µM) | 2.5 µg/mL (≈ 7.54 µM) | 1 µg/mL (≈ 3.02 µM) |  |  |  | Minimum inhibitory concentration (MIC) (Streptococcus 42): >5 µg/mL |
| O=C1OC(c2ccc(O)c(I)c2)(c2ccc(O)c(I)c2)c2ccc3ccccc3c21 [Compound 3] |  |  |  |  |  |  |  |  |  |  |  |  |  |  |  |  |  | 4.5 µM | 3.9 µM | 0.01 |  |
| O=C1OC(c2ccc(O)cc2)(c2ccc(O)cc2)c2ccc3ccccc3c21 [Compound 6, 3,3-Bis-(4-hydroxyphenyl)-1H-naphtho[1,2-c]furan-3-one] |  |  |  |  |  |  |  |  |  |  |  |  |  |  |  |  |  |  | 13 µM |  |  |
| O=C1OC(c2cc(Br)c(O)c(Br)c2)(c2cc(Br)c(O)c(Br)c2)c2ccc3ccccc3c21 [Compound 5, 3,3-bis-(3,5-bromo-4-hydroxyphenyl)-3H-naphtho(1,2-c)furan-1-one] | >25 µg/mL | 2.5 µg/mL (≈ 3.66 µM) | >25 µg/mL | >25 µg/mL | 2.5 µg/mL (≈ 3.66 µM) | 2.5 µg/mL (≈ 3.66 µM) | 2.5 µg/mL (≈ 3.66 µM) | 2.5 µg/mL (≈ 3.66 µM) | 2.5 µg/mL (≈ 3.66 µM) | 2.5 µg/mL (≈ 3.66 µM) | 2.5 µg/mL (≈ 3.66 µM) | 2.5 µg/mL (≈ 3.66 µM) | 2.5 µg/mL (≈ 3.66 µM) | 2.5 µg/mL (≈ 3.66 µM) | 2.5 µg/mL (≈ 3.66 µM) | 2.5 µg/mL (≈ 3.66 µM) | 1 µg/mL (≈ 1.46 µM) | 13 µM | 69 µM | 0.3 | Minimum inhibitory concentration (MIC) (Streptococcus 42): 2.5 µg/mL (≈ 3.66 µM); citotoxicity (VERO cells; 1 mg/L, VERO cells (Table 3)): not to be citotoxic; MTT test, percentage of cellular growth (VERO cells; 1.56 mg/L): 100 percentage; MTT test, percentage of cellular growth (VERO cells; 3.12 mg/L): 100 percentage; MTT test, percentage of cellular growth (VERO cells; 6.25 mg/L): 100 percentage; MTT test, percentage of cellular growth (VERO cells; 12.05 mg/L): 100 percentage; MTT test, percentage of cellular growth (VERO cells; 25 mg/L): 100 percentage; MTT test, percentage of cellular growth (VERO cells; 50 mg/L): >100 percentage; inhibitory effect on S. epidermidis growth (FIG. 1) ([9]; 0.1 mg/L): No inhibitory effect; antibacterial activity on S. epidermidis growth (FIG. 1) ([9]; 0.5 mg/L, after a 8 hours period): antibacterial activity becomes evident; antibacterial effect on S. epidermidis growth (FIG. 1) ([9]; 1 mg/L): best result; concentration to which the strain is sensitive ([9]; S. epidemidis strain resistant to 17 antibiotics): 0.5 mg/L; lowest MIC on S. epidermidis strains ([9]; multiresistant S. epidermidis strains): 0.5 to 1 µg/mL; activity on multiresistant strains [10]: active on the major part of the multiresistant strains |
| O=C1OC(c2ccc(O)c(F)c2)(c2ccc(O)c(F)c2)c2ccc3ccccc3c21 [Compound 8, 3,3-Bis-(3-fluorine-4-hydroxyphenyl)1H-naphtho(1,2-c)furan-3-one] | >50 µg/mL | 25 µg/mL (≈ 61.8 µM) | >50 µg/mL | >50 µg/mL | 25 µg/mL (≈ 61.8 µM) | 25 µg/mL (≈ 61.8 µM) | 25 µg/mL (≈ 61.8 µM) | 25 µg/mL (≈ 61.8 µM) | 25 µg/mL (≈ 61.8 µM) | 25 µg/mL (≈ 61.8 µM) | 25 µg/mL (≈ 61.8 µM) | 25 µg/mL (≈ 61.8 µM) | 25 µg/mL (≈ 61.8 µM) | 25 µg/mL (≈ 61.8 µM) | 25 µg/mL (≈ 61.8 µM) | 25 µg/mL (≈ 61.8 µM) | 25 µg/mL (≈ 61.8 µM) | 3.5 µM | 109 µM | 1 | Minimum inhibitory concentration (MIC) (Streptococcus 42): 25 µg/mL (≈ 61.8 µM) |
| O=C1OC(c2ccc(O)c(Br)c2)(c2ccc(O)c(Br)c2)c2ccc3ccccc3c21 [Compound 4] |  |  |  |  |  |  |  |  |  |  |  |  |  |  |  |  |  | 2.7 µM | 33 µM | 0.2 |  |
| Cc1cc(O)c(C(C)C)cc1C1(c2cc(C(C)C)c(O)cc2C)OC(=O)c2c1ccc1ccccc21 [Compound 2, 33,3-Bis-(4-hydroxyl-5-isopropyl-2-methylphenyl)-3H-naphtho(1,2-c)furan-1-one] |  |  |  |  |  |  |  |  |  |  |  |  |  |  |  |  |  | 0.6 µM | 35 µM | 88 |  |
| O=C1OC(c2ccc(O)c(Cl)c2)(c2ccc(O)c(Cl)c2)c2ccc3ccccc3c21 [Compound 7, 3,3-Bis-(3-chlorine-4-hydroxyphenyl)1H-naphtho(1,2-c)furan-3-one] |  |  |  |  |  |  |  |  |  |  |  |  |  |  |  |  |  | 8.1 µM |  | 1 |  |
